Test systems include NCI/ADR-RES; MOLT-4; CAKI-1; SK-MEL-5; SW-620; NCI-H522; NCI-H226; NCI-H460; HCC 2998; SK-MEL-2; RPMI-8226; RXF 393; TK-10; U-251; HCT-116; HOP-62; T47D; SR; HL-60.
What all share (assay): growth of human tumour cells (NCI), 48 h

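Briefly, cells in 96-well plates were exposed to five compound concentrations for 48 h, and endpoints were estimated by linear interpolation. GI50: concentration for 50% inhibition of growth.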 Calls of active or inactive are those of the source. No stated cut-off is given here; in the data, active = GI50 up to about 1.1 µM and inactive = higher.

`Nn1c(CCCCCCCCc2nnc(COc3ccc(Cl)cc3)n2N)nnc1COc1ccc(Cl)cc1`: the GI50 with NCI/ADR-RES was > 100 µM (inactive); with MOLT-4 it was 49.5 µM (inactive); in the experiment on CAKI-1 it was 16.9 µM (inactive); in the experiment on SK-MEL-5, > 100 µM (inactive); in the experiment on SW-620, > 100 µM (inactive); in the experiment with NCI-H522, 81.1 µM (inactive). The GI50 in the experiment on NCI-H226, with NCI-H460, in the experiment with HCC 2998, in the experiment with SK-MEL-2, in the experiment on RPMI-8226 and in the experiment with RXF 393 was > 100 µM (inactive) in each case. The GI50 with TK-10 is 78 µM (inactive); in the experiment on U-251 it was > 100 µM (inactive); with HCT-116, 74.5 µM (inactive).

As to `S=c1oc(CCCCCCCCc2nn(CNc3ccccc3)c(=S)o2)nn1CNc1ccccc1`, the GI50 with NCI/ADR-RES, in the experiment on MOLT-4, with HOP-62, in the experiment with CAKI-1, with SK-MEL-5 and with SW-620 was > 100 µM (inactive) throughout. For the same molecule, the GI50 in the experiment with NCI-H522, in the experiment on NCI-H226, in the experiment on NCI-H460, with HCC 2998, in the experiment on SK-MEL-2 and with RPMI-8226 was > 100 µM (inactive) in each case. The GI50 in the experiment on TK-10, with U-251 and with HCT-116 was > 100 µM (inactive) each time.

As for `Cc1cc2nc3c(C#N)c(-c4ccccc4)cc(Nc4cccc(C(F)(F)F)c4)n3c2cc1C`, the GI50 in the experiment on NCI/ADR-RES was 4.07 µM (inactive); in the experiment with HOP-62, 9.98 µM (inactive); in the experiment on CAKI-1 it was 4.85 µM (inactive); in the experiment on SK-MEL-5, 3.21 µM (inactive); with SW-620, 3.74 µM (inactive); in the experiment on NCI-H522 it was 4.49 µM (inactive). Also, the GI50 with NCI-H226 is 3.86 µM (inactive); in the experiment on NCI-H460, 3.33 µM (inactive); with HCC 2998, 3.84 µM (inactive); in the experiment with T47D it was 4.16 µM (inactive); in the experiment on SK-MEL-2, 2.61 µM (inactive); with RPMI-8226 it was 1.61 µM (inactive). The GI50 in the experiment on RXF 393 is 5.48 µM (inactive); with TK-10, 7.69 µM (inactive); in the experiment with HCT-116 it was 2.7 µM (inactive).

Regarding `Cc1ccc(Nc2cn(COCc3ccccc3)c(=O)[nH]c2=O)cc1`, the GI50 with NCI/ADR-RES was > 100 µM (inactive); with MOLT-4, > 100 µM (inactive); with HOP-62 it was 29.4 µM (inactive); in the experiment with CAKI-1 it was 65.5 µM (inactive); in the experiment with SK-MEL-5, > 100 µM (inactive); in the experiment on SW-620, > 100 µM (inactive). Further, the GI50 with NCI-H226, with SR, with NCI-H460, with HCC 2998, in the experiment with HL-60 and in the experiment with RPMI-8226 was > 100 µM (inactive) in each case. Besides, the GI50 in the experiment on RXF 393, in the experiment with U-251 and with HCT-116 was > 100 µM (inactive) each time.

Regarding `CCOC(=O)/C(C(=O)c1ccccc1)=C1\N[C@H](C(=O)OCC)CS1`, the GI50 in the experiment on MOLT-4 is > 100 µM (inactive); in the experiment on HOP-62 it was > 100 µM (inactive); in the experiment on CAKI-1, > 100 µM (inactive); in the experiment on SK-MEL-5 it was 92.3 µM (inactive); with SW-620 it was > 100 µM (inactive); with NCI-H522 it was > 100 µM (inactive). Also, the GI50 with NCI-H226, in the experiment with SR, in the experiment with NCI-H460, in the experiment with HCC 2998, in the experiment with HL-60 and in the experiment on SK-MEL-2 was > 100 µM (inactive) in each case. The GI50 in the experiment on RPMI-8226, with RXF 393, in the experiment with U-251 and in the experiment on HCT-116 was > 100 µM (inactive) each time.

Regarding `O=C(CCC(=O)Nc1ccc(Cl)cc1)CC(=O)c1ccc(F)cc1`, the GI50 in the experiment with MOLT-4, with HOP-62, with CAKI-1, in the experiment with SW-620, in the experiment on NCI-H522 and with NCI-H226 was > 100 µM (inactive) throughout. Further, the GI50 in the experiment on SR, with NCI-H460, in the experiment with HCC 2998, in the experiment with HL-60, in the experiment with SK-MEL-2 and in the experiment on RPMI-8226 was > 100 µM (inactive) throughout. In addition, the GI50 with TK-10 and with HCT-116 was > 100 µM (inactive) in each case.

As for `O=C1CCCC2=C1CC1=C(CCCC1=O)N2c1cccc2ccccc12`, the GI50 in the experiment with NCI/ADR-RES was > 100 µM (inactive); in the experiment with MOLT-4 it was 78 µM (inactive); with CAKI-1, > 100 µM (inactive); in the experiment on SK-MEL-5, 85.3 µM (inactive); in the experiment on SW-620, > 100 µM (inactive); in the experiment on NCI-H226, > 100 µM (inactive). Moreover, the GI50 in the experiment with SR was > 100 µM (inactive); in the experiment on NCI-H460 it was > 100 µM (inactive); with HCC 2998 it was > 100 µM (inactive); in the experiment with HL-60 it was 17 µM (inactive); with RPMI-8226 it was > 100 µM (inactive); in the experiment with RXF 393 it was 10.9 µM (inactive). Moreover, the GI50 in the experiment with TK-10 was > 100 µM (inactive); in the experiment on U-251, 61 µM (inactive).

Turning to `CC(=O)[C@@H]1C/C(=C\OCc2ccccc2)O[C@H]1C`, the GI50 in the experiment with NCI/ADR-RES, in the experiment on MOLT-4, in the experiment on HOP-62, in the experiment with CAKI-1, with SK-MEL-5 and in the experiment on SW-620 was > 100 µM (inactive) in each case. Moreover, the GI50 with NCI-H522, in the experiment with NCI-H226, in the experiment with NCI-H460, with T47D, in the experiment with RPMI-8226 and in the experiment on RXF 393 was > 100 µM (inactive) in each case. For the same molecule, the GI50 in the experiment with TK-10, with U-251 and in the experiment on HCT-116 was > 100 µM (inactive) in each case.

Regarding `Nc1nc(Cl)c2nnn(CC3CCC(CO)C3)c2n1` (stereo not given), the GI50 in the experiment with NCI/ADR-RES, in the experiment with HOP-62, in the experiment on CAKI-1, with SK-MEL-5, in the experiment on SW-620 and in the experiment on NCI-H226 was > 100 µM (inactive) each time. Besides, the GI50 with HCC 2998, in the experiment with T47D, in the experiment on SK-MEL-2, in the experiment with RPMI-8226, with RXF 393 and with TK-10 was > 100 µM (inactive) throughout. The GI50 with U-251 and in the experiment with HCT-116 was > 100 µM (inactive) each time.

As to `CCOC(=O)N1CCN(c2ccc3ccc(N)nc3n2)CC1`, the GI50 in the experiment with NCI/ADR-RES is > 100 µM (inactive); in the experiment on MOLT-4 it was 74.1 µM (inactive); in the experiment with HOP-62, > 100 µM (inactive); in the experiment on CAKI-1, > 100 µM (inactive); with SW-620, > 100 µM (inactive); with NCI-H522, > 100 µM (inactive). The GI50 in the experiment on NCI-H226 was > 100 µM (inactive); with SR it was > 100 µM (inactive); in the experiment with NCI-H460, 71.6 µM (inactive); in the experiment on HCC 2998 it was > 100 µM (inactive); in the experiment on HL-60 it was > 100 µM (inactive); in the experiment with SK-MEL-2, > 100 µM (inactive). For the same molecule, the GI50 in the experiment on RPMI-8226, in the experiment with TK-10, with U-251 and in the experiment with HCT-116 was > 100 µM (inactive) in each case.

Take `CCCCCCCCCCCCCCCCCCNc1ccn(C2OC(COP(=O)(O)OCC3CCC(n4cnc5c(=O)[nH]cnc54)O3)C(O)C2O)c(=O)n1` (stereo not given): the GI50 with NCI/ADR-RES, in the experiment on MOLT-4, in the experiment with HOP-62, in the experiment on CAKI-1, in the experiment on SK-MEL-5 and in the experiment on SW-620 was > 100 µM (inactive) each time. Also, the GI50 is 51.5 µM (inactive) in the experiment with NCI-H522; > 100 µM (inactive) with NCI-H226; > 100 µM (inactive) in the experiment with NCI-H460; 95.5 µM (inactive) with T47D; > 100 µM (inactive) in the experiment with SK-MEL-2; 19.9 µM (inactive) with RXF 393. For the same molecule, the GI50 is 19.5 µM (inactive) in the experiment with TK-10, > 100 µM (inactive) in the experiment on U-251 and > 100 µM (inactive) in the experiment with HCT-116.

For the molecule `Cc1ccc(-c2c(C#N)c(-c3ccccc3)n(NS(=O)(=O)c3ccc(C)cc3)c(=O)c2C#N)cc1`, the GI50 was 96.4 µM (inactive) in the experiment with NCI/ADR-RES; 19.8 µM (inactive) in the experiment with MOLT-4; 41.9 µM (inactive) in the experiment with HOP-62; 71.1 µM (inactive) with CAKI-1; 19.2 µM (inactive) in the experiment on SK-MEL-5; 40.6 µM (inactive) in the experiment on SW-620. The GI50 with NCI-H522 was 39.2 µM (inactive); in the experiment on NCI-H226, 74.3 µM (inactive); in the experiment on NCI-H460, 34.3 µM (inactive); in the experiment on HCC 2998, 47.4 µM (inactive); in the experiment with SK-MEL-2 it was 35.8 µM (inactive); in the experiment on RPMI-8226 it was 8.36 µM (inactive). The GI50 was 51.5 µM (inactive) in the experiment on RXF 393, 55.3 µM (inactive) with TK-10, 49.5 µM (inactive) in the experiment on U-251 and 35.1 µM (inactive) in the experiment on HCT-116.

With `Cc1cccc(-c2cc(O)c3cccnc3n2)c1`, the GI50 in the experiment with NCI/ADR-RES was 0.618 µM (active); in the experiment on MOLT-4, 0.902 µM (active); with HOP-62, 17.6 µM (inactive); in the experiment with SK-MEL-5, 0.467 µM (active); in the experiment with SW-620, 0.431 µM (active); in the experiment with NCI-H522 it was 0.553 µM (active). Moreover, the GI50 was 4.44 µM (inactive) with NCI-H226; 0.0946 µM (active) in the experiment with SR; 0.475 µM (active) in the experiment on NCI-H460; 1.98 µM (inactive) in the experiment on HCC 2998; 0.128 µM (active) with HL-60; 0.679 µM (active) with RPMI-8226. Moreover, the results for the GI50 in the experiment on RXF 393, in the experiment with U-251 and in the experiment with HCT-116 were 6.24 µM (inactive), 0.449 µM (active) and 0.385 µM (active), respectively.

These data come from ChEMBL document CHEMBL1201862, “PubChem BioAssay data set” (2004).
